Data from publication PMC3958311 (EMBO Molecular Medicine, 2014).
≈ marks a conversion by molar mass, not a printed value. Like-named read-outs stand apart in the source and are kept apart here.

Columns and labels:
in vivo = details: mouse, in vivo
Experimental: Table S5. Principal pharmacokinetic properties1
1 See Figure S5 for primary data.
Compound levels were measured in serum from individual female mice (3/time point) that had received a single dose of 25 mg/kg. Maximum concentration (Cmax); area under the curve (AUC); apparent clearance.
Comparative pharmacokinetic analysis. After receiving a single dose
(25 mg/kg) of PBTZ169 or BTZ043 by gavage, groups of three female mice were sacrificed at the times indicated, blood was obtained by cardiac puncture and the drug levels in serum determined by LC-MS/MS technique (limit of quantification 10 μg/L).

M. tuberculosis H37Rv [1] = experiment: Drug susceptibility testing on solid Löwenstein-Jensen medium; type: cell-based; details: Mycobacterium tuberculosis, H37RV
in vitro [2] = details: human, microsomes
M. bolletii 1999-0888 = experiment: MIC99 by REMA; type: cell-based
[3] = tested on: M. tuberculosis clinical isolate 4328; experiment: Drug susceptibility testing on solid Löwenstein-Jensen medium; type: cell-based; details: Mycobacterium tuberculosis
M. marinum strain E11 = experiment: Zebrafish embryo infection model, M. marinum strain E11; details: 25 nM for 5, 4 or 3 days
Experimental: The number of colony forming units (CFU) per embryo was determined and compared to the level of fluorescence.
Zebrafish embryos were infected with either M. marinum strain M (A, B) or E11 (C, D). […] The bacterial burden was assessed by fluorescence microscopy and customized software to quantify the number of fluorescent pixels (A and C), and by enumeration of the CFU in lysed embryos (B and D), immediately after imaging was performed. In B and D, each data point represents the mean number of CFU per embryo of 3 embryo extracts plated, the bars indicate means and s.e.m. after log transformation. […]
Volumes of 1 nl of bacterial suspension, containing 50-200 CFU were injected into the caudal vein of embryonic zebrafish at approximately 28 h post fertilization. At 5 days post infection, embryos were monitored using fluorescence microscopy (Leica MZ16FA). Brightfield and fluorescent images were generated with a Leica DFC420C camera and subsequently fluorescent images were analyzed with customized software to quantify infection levels.
Twelve infected embryos were incubated at 28°C in petri dishes of 4 cm diameter containing 4 ml sterilized egg water (60 μg/ml instant ocean sea salts) with 0.003% 1-phenyl-2-thiourea (Sigma) to prevent melanization. All drug treatment experiments were performed in egg water containing 1% DMSO and analyzed at 5 days post infection (dpi). […]

[4] = tested on: M. tuberculosis clinical isolate 7384; experiment: Drug susceptibility testing on solid Löwenstein-Jensen medium; type: cell-based; details: Mycobacterium tuberculosis
M. tuberculosis DprE1 = M. tuberculosis DprE1 (Mycobacterium tuberculosis, UniProt P9WJF1); experiment: DprE1 inhibition, two step peroxidase-coupled assay with Amplex Red; type: biochemical
M. smegmatis mc^2155 = experiment: MIC99 by REMA; type: cell-based, Mycobacterium smegmatis
M. tuberculosis H37Rv [5] = experiment: In vitro combination studies, REMA checkerboard; type: cell-based
[6] = human
M. bovis BCG Pasteur = experiment: microbe, parasite or virus in culture; type: cell-based, Mycobacterium bovis BCG
M. marinum strain M [7] = type: in vivo, zebrafish (Danio rerio); details: zebrafish, in vivo
[8] = tested on: M. tuberculosis clinical isolate 5253; experiment: Drug susceptibility testing on solid Löwenstein-Jensen medium; type: cell-based; details: Mycobacterium tuberculosis
[9] = tested on: M. tuberculosis clinical isolate 6448; experiment: as above; type: cell-based; details: Mycobacterium tuberculosis
[10] = target: T1, purified recombinant M. smegmatis NfnB (Mycolicibacterium smegmatis, UniProt A0R6D0); experiment: NfnB-mediated nitroreduction followed by LC-MS; type: biochemical
T1 construct: made in house

M. tuberculosis H37Rv [11] = experiment: MIC by resazurin reduction microplate assay (REMA); type: cell-based, Mycobacterium tuberculosis
M. vaccae ATCC 15483 = experiment: MIC99 by REMA; type: cell-based
M. tuberculosis MDR_CHUV = experiment: MIC99 by REMA; type: cell-based, Mycobacterium tuberculosis
[12] = tested on: M. tuberculosis clinical isolate 6374; experiment: Drug susceptibility testing on solid Löwenstein-Jensen medium; type: cell-based; details: Mycobacterium tuberculosis
[13] = mouse
M. smegmatis GM22 = experiment: microbe, parasite or virus in culture; type: cell-based; details: for MIC99: M. smegmatis GM22, overproduces NfnB nitroreductase
M. bovis BCG BN2 = type: cell-based, Mycobacterium bovis BCG
M. massiliense 2005-0484 = experiment: MIC99 by REMA; type: cell-based
[14] = tested on: M. tuberculosis clinical isolate 6341; experiment: Drug susceptibility testing on solid Löwenstein-Jensen medium; type: cell-based; details: Mycobacterium tuberculosis
[15] = tested on: M. tuberculosis clinical isolate 6412; experiment: as above; type: cell-based; details: Mycobacterium tuberculosis
[16] = tested on: M. tuberculosis clinical isolate 6418; experiment: as above; type: cell-based; details: Mycobacterium tuberculosis
zebrafish embryos = type: in vivo, zebrafish (Danio rerio); details: zebrafish, in vivo
Experimental: On examination of infected zebrafish embryos treated with BTZ043 it was observed that the compound affected embryo development (Fig 6A–G) especially at concentrations above 25 nM. […] These defects were also observed when uninfected embryos were exposed to BTZ043.
Figure 6 Effect of BTZ043 on M. marinum infected zebrafish embryo development. A–D M. marinum infected zebrafish embryos were treated with BTZ043 for 5 days at the concentrations indicated and photographed using a Leica DFC420C camera. The M strain was used for infection. E–F Images of the notochord from untreated and treated zebrafish, arrows indicate developmental abnormalities. G Analysis of zebrafish embryos displaying developmental abnormalities treated with BTZ043 (BTZ) or PBTZ169 (PBTZ) at the concentrations indicated.

M. abscessus 2005-0524 = experiment: MIC99 by REMA; type: cell-based
[17] = tested on: M. tuberculosis clinical isolate 5055; experiment: Drug susceptibility testing on solid Löwenstein-Jensen medium; type: cell-based; details: Mycobacterium tuberculosis
M. tuberculosis H37Rv [18] = type: in vivo, BALB/c mice; details: mouse, in vivo
C. glutamicum ATCC 13032 = experiment: MIC99 by REMA; type: cell-based, Corynebacterium glutamicum
in vitro [19] = details: mouse, microsomes
M. avium ATCC 15769 = experiment: MIC99 by REMA; type: cell-based
C. diphtheriae DSM 44123 = experiment: MIC99 by REMA; type: cell-based, Corynebacterium diphtheriae
M. marinum Strain M [20] = experiment: MIC99 by REMA; type: cell-based, Mycobacterium marinum
M. smegmatis MN47 = type: cell-based; details: M. smegmatis MN47, DprE1 Cys394Gly
M. smegmatis MN84 = type: cell-based; details: M. smegmatis MN84, DprE1 Cys394Ser
[21] = Mycobacterium tuberculosis, H37RV

T1 sequence (A0R6D0 whole entry): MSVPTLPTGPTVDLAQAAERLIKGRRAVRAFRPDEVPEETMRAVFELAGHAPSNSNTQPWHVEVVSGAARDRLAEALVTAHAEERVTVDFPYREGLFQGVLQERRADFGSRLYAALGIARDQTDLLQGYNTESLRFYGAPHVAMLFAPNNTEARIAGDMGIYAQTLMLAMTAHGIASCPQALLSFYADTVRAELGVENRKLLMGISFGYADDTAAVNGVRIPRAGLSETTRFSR
Chain of M. tuberculosis DprE1 (P9WJF1 whole entry, looked up): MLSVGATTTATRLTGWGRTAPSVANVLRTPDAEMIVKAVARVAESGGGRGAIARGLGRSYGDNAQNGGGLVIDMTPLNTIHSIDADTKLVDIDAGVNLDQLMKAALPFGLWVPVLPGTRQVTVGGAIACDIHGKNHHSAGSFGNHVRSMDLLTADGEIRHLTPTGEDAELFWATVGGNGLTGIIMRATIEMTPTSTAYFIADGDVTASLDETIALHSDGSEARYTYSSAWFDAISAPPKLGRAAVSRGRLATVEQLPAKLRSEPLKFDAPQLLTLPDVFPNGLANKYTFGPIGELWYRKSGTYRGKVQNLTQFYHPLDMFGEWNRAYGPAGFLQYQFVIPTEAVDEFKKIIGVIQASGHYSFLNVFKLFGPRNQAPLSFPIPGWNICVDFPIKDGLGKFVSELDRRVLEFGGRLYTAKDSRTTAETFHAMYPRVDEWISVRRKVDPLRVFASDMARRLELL

O=c1nc(N2CCN(CC3CCCCC3)CC2)sc2c([N+](=O)[O-])cc(C(F)(F)F)cc12 [PBTZ169]
time the serum level remains well above MIC (in vivo; female): > 21 h
Cmax (in vivo; female, po, 25 mg/kg): 1850 ng/mL
half-life (in vivo; female, po, 25 mg/kg): 1.85 h
k el (in vivo; female, po, 25 mg/kg): 0.000104 s⁻¹
AUC (in vivo; po, 25 mg/kg): 193487 µg·min/L
MIC (M. tuberculosis H37Rv [1]): 0.031 µg/mL (≈ 0.0679 µM)
microsomal CLint (in vitro [2]): 24.8 µL/min/mg
MIC99 (M. bolletii 1999-0888; Mycobacteroides abscessus, 19990888): > 100 µg/mL
MIC [3]: 0.063 µg/mL (≈ 0.138 µM)
decrease in number of CFU per embryo (M. marinum strain E11): ~2 log units
MIC [4]: 0.063 µg/mL (≈ 0.138 µM)
concentration giving full inhibition of DprE1 (M. tuberculosis DprE1): 5 µM
MIC99 (M. smegmatis mc^2155; Mycolicibacterium smegmatis, MC^2155): 0.0007 µg/mL (≈ 0.00153 µM)
ΣFIC (sum of the fractional inhibitory concentrations) (M. tuberculosis H37Rv [5]): 0.5
clearance on incubation with microsomes (in words) [6]: medium clearance values
MIC99 (M. bovis BCG Pasteur; Mycobacterium tuberculosis variant bovis BCG, BCG): 0.0006 µg/mL (≈ 0.00131 µM)
bacterial burden in infected zebrafish embryos (fluorescence) (M. marinum strain M [7]): almost no bacteria were present
decrease in number of CFU per embryo (M. marinum strain M [7]): about 3 log units
effect on the infection in zebrafish embryos (M. marinum strain M [7]): no significant effect
MIC [8]: 0.063 µg/mL (≈ 0.138 µM)
MIC [9]: 0.063 µg/mL (≈ 0.138 µM)
NfnB-mediated reduction, species found by LC-MS [10]: the major species found in the LC-MS analysis was the original nitro form
MIC (M. tuberculosis H37Rv [11]; [21]): ≤ 0.00019 µg/mL
MIC99 (M. tuberculosis H37Rv [11]; [21]): 0.0003 µg/mL (≈ 0.000657 µM)
MIC (M. tuberculosis H37Rv [11]; Mycobacterium tuberculosis, H37RV, read-out: MIC M. tuberculosis): ≤ 0.00019 µg/mL
MIC99 (M. vaccae ATCC 15483; Mycolicibacterium vaccae, ATCC15483): > 100 µg/mL
MIC99 (M. tuberculosis MDR_CHUV; Mycobacterium tuberculosis): 0.0004 µg/mL (≈ 0.000876 µM)
MIC [12]: 0.063 µg/mL (≈ 0.138 µM)
clearance on incubation with microsomes (in words) [13]: medium clearance values
MIC (M. smegmatis GM22; Mycolicibacterium smegmatis, GM22, read-out: MIC for GM22): 0.005 µg/mL (≈ 0.011 µM)
MIC99 (M. smegmatis GM22; Mycolicibacterium smegmatis, read-out: MIC99): 0.003 µg/mL (≈ 0.00657 µM)
MIC99 (M. bovis BCG BN2): >100 µg/mL
fold increased resistance conferred by the Cys387Ser mutation in DprE1 (M. bovis BCG BN2): > 10 000 fold
MIC99 (M. massiliense 2005-0484; Mycobacteroides abscessus, 20050484): > 100 µg/mL
MIC [14]: 0.031 µg/mL (≈ 0.0679 µM)
MIC [15]: 0.031 µg/mL (≈ 0.0679 µM)
MIC [16]: 0.063 µg/mL (≈ 0.138 µM)
developmental defects in zebrafish embryos (in words) (zebrafish embryos): no developmental defects were seen
MIC99 (M. abscessus 2005-0524; Mycobacteroides abscessus, 20050524): > 100 µg/mL
MIC [17]: 0.063 µg/mL (≈ 0.138 µM)
activity in dose escalation study (in words) (M. tuberculosis H37Rv [18]): active at all the concentrations tested
reduction of CFU in the lungs in comparison to BTZ043 at the same dose (M. tuberculosis H37Rv [18]): > 0.5 log
reduction of bacterial burden in the spleens, fold more than BTZ043 (M. tuberculosis H37Rv [18]): 10 fold
selectivity index (HepG2 human cell line; HepG2 cytotoxicity relative to MIC): > 10 000
TD99 (HepG2 human cell line; human): > 200 µg/mL
MIC99 (C. glutamicum ATCC 13032; Corynebacterium glutamicum, ATCC13032): 0.013 µg/mL (≈ 0.0285 µM)
microsomal CLint (in vitro [19]): 24.3 µL/min/mg
MIC99 (M. avium ATCC 15769; Mycobacterium avium, ATCC15769): > 100 µg/mL
MIC99 (C. diphtheriae DSM 44123; Corynebacterium diphtheriae, DSM44123): 0.003 µg/mL (≈ 0.00657 µM)
MIC99 (M. marinum Strain M [20]; Mycobacterium marinum): 0.0003 µg/mL (≈ 0.000657 µM)

moxifloxicin [MXF]
MIC99 (M. bolletii 1999-0888): 0.94 µg/mL
MIC99 (M. smegmatis MN47): 0.06 µg/mL
MIC99 (M. smegmatis mc^2155): 0.06 µg/mL
MIC99 (M. smegmatis MN84): 0.06 µg/mL
MIC99 (M. bovis BCG Pasteur): 0.02 µg/mL
MIC99 (M. tuberculosis H37Rv [11]): 0.03 µg/mL
MIC99 (M. vaccae ATCC 15483): 0.63 µg/mL
MIC99 (M. tuberculosis MDR_CHUV): 0.03 µg/mL
MIC99 (M. smegmatis GM22): 0.06 µg/mL
MIC99 (M. bovis BCG BN2): 0.03 µg/mL
MIC99 (M. massiliense 2005-0484): 0.96 µg/mL
MIC99 (M. abscessus 2005-0524): 0.78 µg/mL
MIC99 (C. glutamicum ATCC 13032): 0.31 µg/mL
MIC99 (M. avium ATCC 15769): 0.47 µg/mL
MIC99 (C. diphtheriae DSM 44123): 0.02 µg/mL
MIC99 (M. marinum Strain M [20]): 0.1 µg/mL
